{"source": "patent US6767738B1", "about": "“Method of isolating adult mammalian CNS-derived progenitor stem cells using density gradient centrifugation” (The Salk Institute for Biological Studies, priority 1999, dated 2004)", "key": {"[1]": {"test_system": "low-buoyancy cortical cells", "test": "Acquisition of neuron competence by low-buoyancy cortical cells in culture", "assay_type": "cell-based, rat", "from_the_text": "Tissue dissection: Three areas were dissected from adult rat brains as follows. Rats (170-190 g Fisher 344 males or females, Harlan) were deeply anesthetized with a mixture of ketamine, xylazine, and acepromazine. Animals were decapitated and whole brains removed. First, ˜1.5 mm of each optic nerve were harvested rostral to, but not including, the optic chiasma. The brain was then bisected longitudinally and each hippocampal lobe separated from the overlaying cortical white matter using the natural separation line along the alveus hippocampus. The white matter of the fimbria and subiculum was removed as much as possible. Some white matter remained. Finally, a 1.5 mm wide cortical ribbon containing parietal and frontal segments was dissected longitudinally, proximal to the central fissure. The pial and callosal surfaces were trimmed from each cortical ribbon to remove a majority of the meninges and white matter.\nTissue dissociation and fractionation: Tissues were finely minced and digested in a solution of papain (2.5 U/ml, Worthington), DNAse (250 U/ml, Worthington), and neutral protease (1 U/ml Dispase, Boehringer) dissolved in Hanks balanced salt solution, as described in Palmer T D, Ray J, Gage F H (1995), FGF-2-Responsive Neuronal Progenitors Reside in Proliferative and Quiescent Regions of the Adult Rodent Brain. Mol Cell Neurosci 6:474-486; and Gage F H, Coates P W, Palmer T D, Kuhn H G, Fisher L J, Suhonen J O, Peterson D A, Suhr S T, Ray J (1995), Survival and differentiation of adult neuronal progenitor cells transplanted to the adult brain. Proc Natl Acad Sci USA 92:11879-11883. Cells and tissue fragments were washed 3 times with Dulbecco's Modified Eagles Medium (DMEM) containing 10% […] bovine serum (defined FBS, Hyclone). Whole digested tissue was then suspended in DMEM 10% FBS, filtered through a sterile 107 μm nylon mesh and thoroughly mixed with an equal volume of PERCOLL™ (polyvinylpyrrolidone-coated silica colloids) solution. The PERCOLL™ (polyvinylpyrrolidone-coated silica colloids) solution was made by mixing 9 parts of PERCOLL™ (polyvinylpyrrolidone-coated silica colloids) (Pharmacia) with 1 part 10X phosphate buffered saline (PBS, Irvine Scientific). The cell suspension was then fractionated by centrifugation for 30 minute, 18°C., at 20,000×g. […]\nTo determine how rapidly cortical cells acquired the competence to differentiate into neurons in culture, cells were isolated and cultured in growth medium for various times, allowed to differentiate in differentiation medium and then evaluated for the presence of neurons. […] Cultures were also treated with BrdU for the first 10 days and the newly generated neurons were evaluated for evidence of cell division. All neurons scored were labeled (>99%)."}, "clonal stem cells (AP14)": {"test_system": "clonal stem cells (AP14)", "test": "BrdU labeling of ACSC cultures during RA treatment", "assay_type": "cell-based, rat", "description": "Cell Culture. For proliferating conditions, clonal stem cells (AP14) were cultured in Dulbecco's Modified Eagles Medium/Ham's F12 (DMEM/F12, 1:1) containing N2 supplement (Gibco BRL, Gaithersburg, Md.) and 20 ng/ml rhFGF-2 (provided by A. Baird, Prizm Pharmaceuticals Inc., La Jolla, Calif.). Culture dishes (Becton Dickinsin Labware, Lincoln Park, N.J.) were coated with polyomithine and mouse laminin as previously described by Ray, et al., Proliferation, differentiation and long-term culture of primary hippocampal neurons, Proc Natl Acad Sci USA 90:3602-3606 (1993). For differentiation experiments, cells were plated into polyornithine/laminin coated glass chamber slides (Nunc, Naperville, Ill.) at a density of 2.5—103 per cm2. The cells were incubated for 24 hrs in normal N2 medium containing 20 ng/ml FGF-2, and then the medium was replaced by N2 medium containing 0.5% […] (FBS) and 0.01% DMSO (control solvent) or […] all-trans retinoic acid (Sigma, St. Louis, Mo.). For further differentiation, the medium was replaced by N2 medium containing 0.5% FBS and one of the following: sterile water (control solvent), mouse 2.55 NGF (50 ng/ml, Boehringer Mannheim, Indianapolis, Ind.), rhBDNF (20 ng/ml, Alomone Labs, Jerusalem, Israel), rhNT-3 (40 ng/ml, Genentech, South San Francisco, Calif.). The medium was replaced every two days. For inhibition of the tyrosine kinase activity of the Trk receptors, K-252a (100 nM, Calbiochem, San Diego, Calif.) was added to the medium.\nBrdU Labeling and Visualization. Cells plated as described above were treated with BrdU ([…], Sigma) for 24 hrs before fixation. Then the cells were fixed with tris-buffered 4% paraformaldehyde for 15 min. incubated with tris-buffered 0.6% H2O2 for 30 min, and treated with 50% formamide/2×SSC for 2 hrs followed by a 30-min incubation in 2N HCl, and a neutralization in 0.1M borate (Na2B4O7) for 10 min. Cells were incubated with a-BrdU monoclonal antibody (1:400, Boehringer Mannheim) overnight at 4° C., and incubated with biotinylated horse anti-mouse secondary antibody (1:80, Jackson Immunoresearch, West Grove, Pa.) for 1 hr. Reactive cells were visualized with the avidin/biotin-peroxidase system (Vectastain Elite, Vector Laboratories, Burlingame, Calif.) and diaminobenzidine.\nUpregulation of p21 was accompanied by a decrease in the number of dividing cells as evidenced by BrdU incorporation. Cultures were treated with RA for 2, 4, or 6 days and then pulsed with […] bromodeoxyuridine (BrdU) for 24 hrs on the last day of RA treatment. Cells were then fixed and processed for BrdU immunocytochemistry. In the presence of RA, there was a dramatic change in cell morphology, and a gradual decrease in the total number and proportion of BrdU-positive cells. Within 6 days of RA treatment, most of the phase-bright cells extended elaborate processes and only 29% of the cells were BrdU-positive, whereas in the serum-alone control treatment most of the cells continued to proliferate and retained rudimentary process morphology. In proliferative FGF-2-stimulated controls, more than 95% of the cells were labeled every 24 hrs.\nAlthough proliferation decreased in response to RA, it is possible that the few remaining proliferating cells were contributing to the increase in neurons observed following RA treatment. To determine if RA induced a selective expansion of neuronal precursors, parallel cultures were treated with RA for 6 days followed by an additional 6 days in 0.5% serum alone. One set of cultures was fixed on days 2, 4, 6, 8, 10, and 12 and stained with 4,6-diamidino-2-phenylindole (DAPI) and the total number of nuclei was counted. Additional cultures were pulsed with BrdU for 72 hrs on days 0-3, 3-6, 6-9 or 9-12. The cultures were then fixed on day 12 and evaluated for the proportion of Map2ab-IR cells that had incorporated BrdU. […]"}}, "data": [{"compound": "FGF-2: basic fibroblast growth factor, human recombinant, prepared in E. coli", "values": [{"measurement": "newly generated neurons labeled with BrdU", "setting": "[1]; BrdU for the first 10 days", "value": "> 99", "unit": "%"}, {"measurement": "neurons observed in cortical cultures", "setting": "[1]; after three days in FGF-2", "value": "the occasional neuron was observed"}, {"measurement": "cells that formed neurons when induced to differentiate", "setting": "[1]; by 4 weeks in FGF-2 growth medium, 3 passages", "value": "roughly 10%"}, {"measurement": "cells labeled every 24 hrs (BrdU)", "setting": "clonal stem cells (AP14); proliferative FGF-2-stimulated controls", "value": "more than 95%"}]}, {"compound": "CC1=C(/C=C/C(C)=C/C=C/C(C)=C/C(=O)O)C(C)(C)CCC1", "note": "[RA, all-trans retinoic acid]", "values": [{"measurement": "Map2ab-IR neurons that divided (BrdU)", "setting": "clonal stem cells (AP14); after 6 days of RA treatment", "value": "< 0.5", "unit": "%"}, {"measurement": "Map2ab-IR cells that divided (BrdU)", "setting": "clonal stem cells (AP14); days 3-6 of RA treatment", "value": "Less than 5%"}, {"measurement": "neurons labeled with BrdU", "setting": "clonal stem cells (AP14); first 24 hours upon application of RA", "value": "19 +/− 3%"}, {"measurement": "neurons labeled with BrdU", "setting": "clonal stem cells (AP14); second day following RA treatment", "value": "3 +/− 1%"}, {"measurement": "Map2ab-IR cells that divided (BrdU)", "setting": "clonal stem cells (AP14); three days immediately following start of RA treatment, 72 hr pulse", "value": "Less than one third"}, {"measurement": "BrdU-positive cells", "setting": "clonal stem cells (AP14); within 6 days of RA treatment, 24 hr BrdU pulse", "value": 29, "unit": "%"}]}]}
